Measurements published in patent US11440910B2, “Pesticidally active heterocyclic derivatives with sulfur containing substituents” (SYNGENTA PARTICIPATIONS AG, priority 2017, dated 2022).

Experiments:
[1] = test system: Spodoptera littoralis (Egyptian cotton leaf worm); experiment: Example B2: Spodoptera littoralis, systemic test via lettuce roots in agar; assay type: in vivo; settings: 144 h, test rate 12.5 ppm, 6 days after infestation, read-out: effect in at least one of the three categories (mortality, anti-feeding, or growth inhibition)
Description: Example B2: Spodoptera Littoralis (Egyptian Cotton Leaf Worm)
Test compounds were applied by pipette from 10′000 ppm DMSO stock solutions into 24-well plates and mixed with agar. Lettuce seeds were placed onto the agar and the multi well plate was closed by another plate which contained also agar. After 7 days the compound was absorbed by the roots and the lettuce grew into the lid plate. The lettuce leaves were then cut off into the lid plate. Spodoptera eggs were pipetted through a plastic stencil onto a humid gel blotting paper and the lid plate was closed with it. The samples were assessed for mortality, anti-feedant effect and growth inhibition in comparison to untreated samples 6 days after infestation.

[2] = test system: Bemisia tabaci (Cotton white fly); experiment: Example B7: Bemisia tabaci, cotton leaf discs sprayed; assay type: in vivo; settings: foliar, 144 h, application rate 200 ppm, adult white flies, 6 days after incubation
Experimental: Example B7: Bemisia Tabaci (Cotton White Fly)
Cotton leaf discs were placed on agar in 24-well microtiter plates and sprayed with aqueous test solutions prepared from 10′000 ppm DMSO stock solutions. After drying the leaf discs were infested with adult white flies. The samples were checked for mortality 6 days after incubation.

[3] = test system: Myzus persicae (Green peach aphid); experiment: Example B6: Myzus persicae, roots of pea seedlings in test solution; assay type: in vivo; settings: 144 h, test rate 24 ppm, mixed ages, 6 days after placing seedlings into test solutions
Experimental: Example B6: Myzus Persicae (Green Peach Aphid)
Roots of pea seedlings infested with an aphid population of mixed ages were placed directly into aqueous test solutions prepared from 10′000 DMSO stock solutions. The samples were assessed for mortality 6 days after placing seedlings into test solutions.

[4] = test system: Spodoptera littoralis (Egyptian cotton leaf worm); experiment: Example B1: Spodoptera littoralis, cotton leaf discs sprayed; assay type: in vivo; settings: foliar, 72 h, application rate 200 ppm, L1 larvae, 3 days after infestation, read-out: control (at least one of mortality, anti-feedant effect, growth inhibition)
Experimental: Example B1: Spodoptera Littoralis (Egyptian Cotton Leaf Worm)
Cotton leaf discs were placed onto agar in 24-well microtiter plates and sprayed with aqueous test solutions prepared from 10′000 ppm DMSO stock solutions. After drying the leaf discs were infested with five L1 larvae. The samples were assessed for mortality, anti-feeding effect, and growth inhibition in comparison to untreated samples 3 days after infestation. Control of Spodoptera littoralis by a test sample is given when at least one of the categories mortality, anti-feedant effect, and growth inhibition is higher than the untreated sample.

[5] = test system: Diabrotica balteata (Corn root worm); experiment: Example B4: Diabrotica balteata, maize sprouts sprayed; assay type: in vivo; settings: 96 h, application rate 200 ppm, L2 larvae, 4 days after infestation, read-out: effect in at least one of the two categories (mortality or growth inhibition)
Experimental: Example B4: Diabrotica Balteata (Corn Root Worm)
Maize sprouts placed onto an agar layer in 24-well microtiter plates were treated with aqueous test solutions prepared from 10′000 ppm DMSO stock solutions by spraying. After drying, the plates were infested with L2 larvae (6 to 10 per well). The samples were assessed for mortality and growth inhibition in comparison to untreated samples 4 days after infestation.

[6] = test system: Plutella xylostella (Diamond back moth); experiment: Example B3: Plutella xylostella, artificial diet; assay type: in vivo; settings: 120 h, application rate 200 ppm, L2 larvae, 5 days after infestation, read-out: effect in at least one of the two categories (mortality or growth inhibition)
Experimental: Example B3: Plutella Xylostella (Diamond Back Moth)
24-well microtiter plates with artificial diet were treated with aqueous test solutions prepared from 10′000 ppm DMSO stock solutions by pipetting. After drying, the plates were infested with L2 larvae (10 to 15 per well). The samples were assessed for mortality and growth inhibition in comparison to untreated samples 5 days after infestation.

[7] = test system: Euschistus heros (Neotropical brown stink bug); experiment: Example B8: Euschistus heros, soybean leaves sprayed; assay type: in vivo; settings: 120 h, application rate 200 ppm, N2 nymphs, 5 days after infestation, read-out: effect in at least one of the two categories (mortality or growth inhibition)
Experimental: Example B8: Euschistus Heros (Neotropical Brown Stink Bug)
Soybean leaves on agar in 24-well microtiter plates were sprayed with aqueous test solutions prepared from 10′000 ppm DMSO stock solutions. After drying the leaves were infested with N2 nymphs. The samples were assessed for mortality and growth inhibition in comparison to untreated samples 5 days after infestation.

[8] = test system: Myzus persicae (Green peach aphid); experiment: Example B5: Myzus persicae, sunflower leaf discs sprayed; assay type: in vivo; settings: foliar, 144 h, application rate 200 ppm, mixed ages, 6 days after infestation
Experimental: Example B5: Myzus Persicae (Green Peach Aphid)
Sunflower leaf discs were placed onto agar in a 24-well microtiter plate and sprayed with aqueous test solutions prepared from 10′000 ppm DMSO stock solutions. After drying, the leaf discs were infested with an aphid population of mixed ages. The samples were assessed for mortality 6 days after infestation.

Row | SMILES | mortality at 24 ppm [3] | percent effect (mortality or growth inhibition) at 200 ppm [5] | percent effect (mortality or growth inhibition) at 200 ppm [6] | percent effect (mortality or growth inhibition) at 200 ppm [7] | mortality at 200 ppm [8] | also measured
1 | CCS(=O)(=O)c1cc(C(C)(C#N)C#N)cnc1-c1nc2cc(C(F)(F)F)ncc2n1C [Compound P1, 2-[5-ethylsulfonyl-6-[3-methyl-6-(trifluoromethyl)imidazo[4,5-c]pyridin-2-yl]-3-pyridyl]-2-methyl-propanedinitrile] | – | – | – | – | – | melting point: 222 to 223 °C
2 | CCS(=O)(=O)c1cc(C(C)(C)C#N)cnc1-c1nc2cc(C(F)(F)F)nnc2n1C [Compound P2, 2-[5-ethylsulfonyl-6-[7-methyl-3-(trifluoromethyl)imidazo[4,5-c]pyridazin-6-yl]-3-pyridyl]-2-methyl-propanenitrile] | ≥ 80% | ≥ 80% | ≥ 80% | ≥ 80% | ≥ 80% | percent effect (mortality, anti-feeding or growth inhibition) at 12.5 ppm [1]: ≥ 80%; mortality at 200 ppm [2]: ≥ 80%; percent control (mortality, anti-feedant effect or growth inhibition) at 200 ppm [4]: ≥ 80%
3 | CCC(C#N)(CC)c1cnc(-c2nc3cc(C(F)(F)F)ncc3n2C)c(S(=O)(=O)CC)c1 [Compound P3, 2-ethyl-2-[5-ethylsulfonyl-6-[3-methyl-6-(trifluoromethyl)imidazo[4,5-c]pyridin-2-yl]-3-pyridyl]butanenitrile] | – | ≥ 80% | ≥ 80% | – | – | –
4 | CCC(C#N)c1cnc(-c2nc3cc(C(F)(F)F)ncc3n2C)c(S(=O)(=O)CC)c1 (centres unmarked) [Compound P4, 2-[5-ethylsulfonyl-6-[3-methyl-6-(trifluoromethyl)imidazo[4,5-c]pyridin-2-yl]-3-pyridyl]butanenitrile] | – | ≥ 80% | ≥ 80% | – | ≥ 80% | –
5 | CCS(=O)(=O)c1cc(C(C)(C)C#N)cnc1-c1nc2cc(C(F)(F)F)ncc2n1C [Compound P5, 2-[5-ethylsulfonyl-6-[3-methyl-6-(trifluoromethyl)imidazo[4,5-c]pyridin-2-yl]-3-pyridyl]-2-methyl-propanenitrile] | ≥ 80% | ≥ 80% | ≥ 80% | ≥ 80% | ≥ 80% | mortality at 200 ppm [2]: ≥ 80%; percent control (mortality, anti-feedant effect or growth inhibition) at 200 ppm [4]: ≥ 80%
6 | CCS(=O)(=O)c1cc(C(C)C#N)cnc1-c1nc2cc(C(F)(F)F)ncc2n1C (centres unmarked) [Compound P6, 2-[5-ethylsulfonyl-6-[3-methyl-6-(trifluoromethyl)imidazo[4,5-c]pyridin-2-yl]-3-pyridyl]propanenitrile] | ≥ 80% | ≥ 80% | – | ≥ 80% | – | –
7 | CCOC(=O)C(C)(C#N)c1cnc(-c2nc3cc(C(F)(F)F)ncc3n2C)c(S(=O)(=O)CC)c1 (centres unmarked) [Compound P9, ethyl 2-cyano-2-[5-ethylsulfonyl-6-[3-methyl-6-(trifluoromethyl)imidazo[4,5-c]pyridin-2-yl]-3-pyridyl]propanoate] | – | – | ≥ 80% | ≥ 80% | – | –
8 | CCS(=O)(=O)c1cc(C(C#N)C(C)C)cnc1-c1nc2cc(C(F)(F)F)ncc2n1C (centres unmarked) [Compound P10, 2-[5-ethylsulfonyl-6-[3-methyl-6-(trifluoromethyl)imidazo[4,5-c]pyridin-2-yl]-3-pyridyl]-3-methyl-butanenitrile] | ≥ 80% | ≥ 80% | ≥ 80% | – | ≥ 80% | –
9 | CCSc1cc(C(C)(C)C#N)ccc1-c1nc2cc(C(F)(F)F)nnc2n1C [Compound P11, 2-[3-ethylsulfanyl-4-[7-methyl-3-(trifluoromethyl)imidazo[4,5-c]pyridazin-6-yl]phenyl]-2-methyl-propanenitrile] | – | ≥ 80% | – | ≥ 80% | – | mortality at 200 ppm [2]: ≥ 80%
10 | CCS(=O)(=O)c1cc(C(C)(C)C#N)ccc1-c1nc2cc(C(F)(F)F)nnc2n1C [Compound P12, 2-[3-ethylsulfonyl-4-[7-methyl-3-(trifluoromethyl)imidazo[4,5-c]pyridazin-6-yl]phenyl]-2-methyl-propanenitrile] | ≥ 80% | ≥ 80% | ≥ 80% | ≥ 80% | ≥ 80% | mortality at 200 ppm [2]: ≥ 80%
11 | CCSc1cc(C(C)C#N)ccc1-c1nc2cc(C(F)(F)F)nnc2n1C (centres unmarked) [Compound P13, 2-[3-ethylsulfanyl-4-[7-methyl-3-(trifluoromethyl)imidazo[4,5-c]pyridazin-6-yl]phenyl]propanenitrile] | – | – | – | ≥ 80% | – | –
12 | CCS(=O)(=O)c1cc(C(F)(F)C#N)cnc1-c1nc2cc(C(F)(F)F)ncc2n1C [Compound P15, 2-[5-ethylsulfonyl-6-[3-methyl-6-(trifluoromethyl)imidazo[4,5-c]pyridin-2-yl]-3-pyridyl]-2,2-difluoro-acetonitrile] | ≥ 80% | ≥ 80% | – | ≥ 80% | ≥ 80% | –
13 | CCSc1cc(C(C)(C)C#N)ccc1-c1nc2cc(C(F)(F)F)ncc2n1C [Compound P16, 2-[3-ethylsulfanyl-4-[3-methyl-6-(trifluoromethyl)imidazo[4,5-c]pyridin-2-yl]phenyl]-2-methyl-propanenitrile] | – | ≥ 80% | – | ≥ 80% | – | –
14 | CCS(=O)(=O)c1cc(C(C)(F)C#N)cnc1-c1nc2cc(C(F)(F)F)ncc2n1C (centres unmarked) [Compound P18, 2-[5-ethylsulfonyl-6-[3-methyl-6-(trifluoromethyl)imidazo[4,5-c]pyridin-2-yl]-3-pyridyl]-2-fluoro-propanenitrile] | – | – | – | – | – | melting point: 202 to 204 °C
15 | CCS(=O)(=O)c1cc(C(C)(C)C#N)cnc1-c1nc2cc(Br)ncc2n1C [Compound P19, 2-[6-(6-bromo-3-methyl-imidazo[4,5-c]pyridin-2-yl)-5-ethylsulfonyl-3-pyridyl]-2-methyl-propanenitrile] | ≥ 80% | – | – | ≥ 80% | – | –
16 | CCS(=O)(=O)c1cc(C(C)(C)C#N)cnc1-c1nc2cc(C(F)(F)C(F)(F)F)ncc2n1C [Compound P20, 2-[5-ethylsulfonyl-6-[3-methyl-6-(1,1,2,2,2-pentafluoroethyl)imidazo[4,5-c]pyridin-2-yl]-3-pyridyl]-2-methyl-propanenitrile] | – | – | – | – | – | melting point: 212 to 213 °C
